Here are results for 11 compounds from PubChem BioAssay (NCI).

Some test systems named below: HOP-92 NSCLC; SF-295 CNS; IGROV1 ovarian; SK-OV-3 ovarian; T-47D breast; NCI/ADR-RES ovarian; KM12 colon; RPMI-8226 leukemia.
Common to all, as to experiment: DTP human tumour cell line panel, 48 h

Each structure is given as a SMILES string.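 Dose response: 5 concentrations. Exposure: 48 h. Format: 96-well plates. Endpoint: linear interpolation; highest concentration if not reached. GI50 = concentration required for 50% inhibition of growth. TGI denotes the concentration required for complete inhibition of growth.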

In the case of `COc1ccc(-c2cc(-c3cccn3C)c(C#N)c(N)n2)cc1OC`, the GI50 in the test on HOP-92 NSCLC was 5.16 µM; with SF-295 CNS, above 100 µM; in the test on IGROV1 ovarian, 96 µM; in the test on SK-OV-3 ovarian it was above 100 µM; in the test with T-47D breast, above 100 µM; with NCI/ADR-RES ovarian, above 100 µM. For the same compound, the GI50 with KM12 colon was above 100 µM; with RPMI-8226 leukemia, 38.5 µM. Further, the TGI with HOP-92 NSCLC, in the test on SF-295 CNS, with IGROV1 ovarian, in the test on SK-OV-3 ovarian, in the test with T-47D breast and with NCI/ADR-RES ovarian was above 100 µM each time. For the same compound, the TGI in the test on KM12 colon and with RPMI-8226 leukemia was above 100 µM each time.

`Cc1ccc(N(CSc2ccc(Cl)cc2)CSc2ccc(Cl)cc2)cc1`: the GI50 in the test on HOP-92 NSCLC is 1.3 µM; with SF-295 CNS it was 0.375 µM; with IGROV1 ovarian, 0.481 µM; in the test on SK-OV-3 ovarian, 3.29 µM; in the test with T-47D breast it was 2.92 µM; in the test with NCI/ADR-RES ovarian, 1.38 µM. The GI50 in the test with KM12 colon was 0.51 µM; in the test with RPMI-8226 leukemia it was 2.13 µM. In addition, the TGI with HOP-92 NSCLC stood at 6.73 µM; in the test with SF-295 CNS, 2.6 µM; with IGROV1 ovarian it was 5.87 µM; with SK-OV-3 ovarian, 19.3 µM; with T-47D breast it was 18.3 µM; in the test on NCI/ADR-RES ovarian, 9.04 µM. The TGI turned out to be 12.5 µM in the test on KM12 colon and 6.46 µM in the test with RPMI-8226 leukemia.

Turning to `O=C(CCCN1CC=C(n2c(=O)[nH]c3ccccc32)CC1)c1ccc(F)cc1`, the GI50 in the test on HOP-92 NSCLC is 45.3 µM; in the test on IGROV1 ovarian it was above 100 µM; in the test on SK-OV-3 ovarian, above 100 µM; in the test with T-47D breast it was 19.7 µM; in the test on NCI/ADR-RES ovarian, 22.9 µM; with KM12 colon, 30.7 µM. Besides, the GI50 with RPMI-8226 leukemia was 30.4 µM. In addition, the TGI in the test on HOP-92 NSCLC was above 100 µM; in the test on IGROV1 ovarian, above 100 µM; in the test with SK-OV-3 ovarian, above 100 µM; with T-47D breast, 73.6 µM; in the test on NCI/ADR-RES ovarian, above 100 µM; in the test on KM12 colon, above 100 µM. The compound also returned a TGI with RPMI-8226 leukemia above 100 µM.

Consider `N#CC1Nc2ccccc2[C@@H](O)C1O` (some centres undefined), for which the TGI with HOP-92 NSCLC, in the test on SF-295 CNS, in the test with IGROV1 ovarian, in the test on SK-OV-3 ovarian, with T-47D breast and in the test on NCI/ADR-RES ovarian was above 100 µM in each case. In addition, the TGI in the test on KM12 colon and with RPMI-8226 leukemia was above 100 µM in each case.

On to `O=C(O)c1cccc(OCCO)c1`, for which the TGI in the test with HOP-92 NSCLC, with SF-295 CNS, in the test on IGROV1 ovarian, in the test with SK-OV-3 ovarian, with T-47D breast and with NCI/ADR-RES ovarian was above 100 µM each time. Also, the total growth inhibition concentration (TGI) in the test with KM12 colon and with RPMI-8226 leukemia was above 100 µM each time.

On to `O=C(Nc1ccc(Cl)cc1F)c1cc(Br)ccc1O`, for which the GI50 with HOP-92 NSCLC was 0.183 µM; in the test with SF-295 CNS it was 1.65 µM; in the test on IGROV1 ovarian, 0.642 µM; in the test with SK-OV-3 ovarian, 0.763 µM; in the test with T-47D breast it was 0.56 µM; with NCI/ADR-RES ovarian it was 1.39 µM. Further, the GI50 is 2.13 µM in the test with KM12 colon and 0.43 µM with RPMI-8226 leukemia. The TGI in the test on HOP-92 NSCLC was 0.67 µM; in the test with SF-295 CNS, 3.51 µM; with IGROV1 ovarian, above 100 µM; with T-47D breast, 4.46 µM; in the test with NCI/ADR-RES ovarian it was 14.6 µM; in the test with KM12 colon it was 5.92 µM. The same compound displayed a TGI with RPMI-8226 leukemia of 2.19 µM.

With `Nc1nc(Cl)cc(NCCO)n1`, the total growth inhibition concentration (TGI) in the test on HOP-92 NSCLC, in the test on SF-295 CNS, with IGROV1 ovarian, in the test with SK-OV-3 ovarian, in the test with T-47D breast and in the test with NCI/ADR-RES ovarian was above 100 µM each time. In addition, the TGI in the test on KM12 colon and in the test with RPMI-8226 leukemia was above 100 µM throughout.

As for `Nc1c(C(=O)N/N=C/c2ccc(-c3ccc(Cl)cc3)o2)cnn1-c1ccnc2c(C(F)(F)F)cccc12`, the GI50 with HOP-92 NSCLC is 50.7 µM; with SF-295 CNS, above 100 µM; in the test with IGROV1 ovarian, above 100 µM; in the test on SK-OV-3 ovarian, above 100 µM; in the test with T-47D breast, 42.4 µM; in the test with NCI/ADR-RES ovarian it was above 100 µM. Moreover, the GI50 is above 100 µM in the test with KM12 colon and 0.496 µM in the test with RPMI-8226 leukemia. Also, the TGI in the test with HOP-92 NSCLC, with SF-295 CNS, in the test on IGROV1 ovarian, with SK-OV-3 ovarian, in the test with T-47D breast and with NCI/ADR-RES ovarian was above 100 µM each time. In addition, the TGI in the test on KM12 colon and in the test with RPMI-8226 leukemia was above 100 µM each time.

`O=C(N/N=C\c1cc(Br)ccc1O)c1ccncc1`: the GI50 is 2.22 µM in the test with HOP-92 NSCLC; 3.47 µM with SF-295 CNS; 3.51 µM in the test with IGROV1 ovarian; 4.79 µM in the test on SK-OV-3 ovarian; 2.19 µM with T-47D breast; 1.42 µM with NCI/ADR-RES ovarian. Further, the GI50 in the test with KM12 colon was 1.97 µM; in the test on RPMI-8226 leukemia it was 3.08 µM. For the same compound, the TGI in the test with HOP-92 NSCLC is 45.4 µM; in the test with SF-295 CNS, above 100 µM; in the test with IGROV1 ovarian, above 100 µM; in the test on SK-OV-3 ovarian it was above 100 µM; in the test on T-47D breast it was 62.5 µM; in the test on NCI/ADR-RES ovarian, 34.5 µM. The TGI with KM12 colon and in the test on RPMI-8226 leukemia was above 100 µM throughout.

For `OCCCCC#Cc1ccccc1C#Cc1cccc(O)c1`, the GI50 with HOP-92 NSCLC is 19.8 µM; in the test with SF-295 CNS, 21 µM; in the test on IGROV1 ovarian, 16.8 µM; in the test on SK-OV-3 ovarian, 19.1 µM; with T-47D breast, 14.4 µM; in the test with NCI/ADR-RES ovarian, 20 µM. The results for the GI50 with KM12 colon and with RPMI-8226 leukemia were 17.1 µM and 20.7 µM, respectively. Also, the TGI in the test with HOP-92 NSCLC was found to be 40.7 µM; in the test with SF-295 CNS it was 41.7 µM; with IGROV1 ovarian it was 33.3 µM; with SK-OV-3 ovarian, 43.3 µM; in the test on T-47D breast, 34.7 µM; in the test with NCI/ADR-RES ovarian, 47 µM. The TGI in the test on KM12 colon turned out to be 41.3 µM; in the test on RPMI-8226 leukemia it was 53.7 µM.

As to `NC(=O)C(=CNc1nc(-c2ccc(Cl)c(Cl)c2)cs1)C(N)=O`, the GI50 was above 100 µM in the test on HOP-92 NSCLC; 37.1 µM with SF-295 CNS; 32.6 µM with IGROV1 ovarian; above 100 µM in the test on SK-OV-3 ovarian; above 100 µM with T-47D breast; above 100 µM with NCI/ADR-RES ovarian. The GI50 with KM12 colon is above 100 µM; in the test on RPMI-8226 leukemia it was 40.4 µM. In addition, the TGI with HOP-92 NSCLC, in the test with SF-295 CNS, with IGROV1 ovarian, in the test on SK-OV-3 ovarian, with T-47D breast and in the test on NCI/ADR-RES ovarian was above 100 µM throughout. The TGI with KM12 colon and with RPMI-8226 leukemia was above 100 µM each time.

In general, GI50 refers to the concentration at which growth is held to half of that of the control. The term TGI denotes the concentration at which net growth stops. The low end stands for greater sensitivity of the cells, the high end for lower sensitivity of the cells.
